In patent US20110034454A1, “MORPHOLINO PYRIMIDINE DERIVATIVES AND THEIR USE IN THERAPY” (priority 2006, published 2011):
Values joined by “and” are separate entries in the source; they are usually repeats but may differ in a detail not shown here. Identical values can stand only once. Like-named read-outs stand apart in the source and are kept apart here.

Experiments:
p110α Type Ia human PI3K = biological target: T1, p110α Type Ia human PI3K (Homo sapiens, UniProt P42336); assay: In vitro PI3K enzyme assay (AlphaScreen), p110α; assay type: biochemical; details: Test (b)
T1 construct: full length DNA of each of the p110α, p110β and p110δ Type Ia human PI3K p110 isoforms; 6-His; made in house
T1 sequence (P42336 whole entry, canonical isoform): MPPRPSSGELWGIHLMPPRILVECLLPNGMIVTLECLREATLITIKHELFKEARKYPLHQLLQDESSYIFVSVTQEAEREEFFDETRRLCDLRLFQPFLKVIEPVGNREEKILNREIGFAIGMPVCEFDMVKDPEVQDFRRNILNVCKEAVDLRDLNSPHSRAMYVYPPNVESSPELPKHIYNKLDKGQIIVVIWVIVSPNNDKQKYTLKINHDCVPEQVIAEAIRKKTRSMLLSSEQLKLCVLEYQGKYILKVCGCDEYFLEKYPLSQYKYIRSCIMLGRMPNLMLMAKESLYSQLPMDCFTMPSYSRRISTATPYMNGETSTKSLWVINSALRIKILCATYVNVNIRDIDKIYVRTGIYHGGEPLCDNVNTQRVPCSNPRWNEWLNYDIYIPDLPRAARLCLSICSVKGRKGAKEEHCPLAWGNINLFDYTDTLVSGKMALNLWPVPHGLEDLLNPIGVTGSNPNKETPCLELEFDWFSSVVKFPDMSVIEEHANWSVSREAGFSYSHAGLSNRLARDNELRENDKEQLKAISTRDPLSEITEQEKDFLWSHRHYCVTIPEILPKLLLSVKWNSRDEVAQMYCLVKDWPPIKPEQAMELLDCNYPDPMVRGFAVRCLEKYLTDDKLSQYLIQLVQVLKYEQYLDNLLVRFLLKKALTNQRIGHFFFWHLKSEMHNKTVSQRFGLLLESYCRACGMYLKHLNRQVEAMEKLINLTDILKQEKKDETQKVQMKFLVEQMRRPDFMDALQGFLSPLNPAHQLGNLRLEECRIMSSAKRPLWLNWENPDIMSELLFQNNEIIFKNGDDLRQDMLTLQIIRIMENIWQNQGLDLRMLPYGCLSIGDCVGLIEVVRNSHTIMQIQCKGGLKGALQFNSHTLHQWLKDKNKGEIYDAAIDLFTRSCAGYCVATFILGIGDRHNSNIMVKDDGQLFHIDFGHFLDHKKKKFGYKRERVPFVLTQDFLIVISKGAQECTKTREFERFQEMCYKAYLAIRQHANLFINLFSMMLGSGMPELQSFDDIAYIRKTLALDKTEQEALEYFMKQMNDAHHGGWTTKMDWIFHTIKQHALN
T1 sequence (P27986 whole entry partner, canonical isoform): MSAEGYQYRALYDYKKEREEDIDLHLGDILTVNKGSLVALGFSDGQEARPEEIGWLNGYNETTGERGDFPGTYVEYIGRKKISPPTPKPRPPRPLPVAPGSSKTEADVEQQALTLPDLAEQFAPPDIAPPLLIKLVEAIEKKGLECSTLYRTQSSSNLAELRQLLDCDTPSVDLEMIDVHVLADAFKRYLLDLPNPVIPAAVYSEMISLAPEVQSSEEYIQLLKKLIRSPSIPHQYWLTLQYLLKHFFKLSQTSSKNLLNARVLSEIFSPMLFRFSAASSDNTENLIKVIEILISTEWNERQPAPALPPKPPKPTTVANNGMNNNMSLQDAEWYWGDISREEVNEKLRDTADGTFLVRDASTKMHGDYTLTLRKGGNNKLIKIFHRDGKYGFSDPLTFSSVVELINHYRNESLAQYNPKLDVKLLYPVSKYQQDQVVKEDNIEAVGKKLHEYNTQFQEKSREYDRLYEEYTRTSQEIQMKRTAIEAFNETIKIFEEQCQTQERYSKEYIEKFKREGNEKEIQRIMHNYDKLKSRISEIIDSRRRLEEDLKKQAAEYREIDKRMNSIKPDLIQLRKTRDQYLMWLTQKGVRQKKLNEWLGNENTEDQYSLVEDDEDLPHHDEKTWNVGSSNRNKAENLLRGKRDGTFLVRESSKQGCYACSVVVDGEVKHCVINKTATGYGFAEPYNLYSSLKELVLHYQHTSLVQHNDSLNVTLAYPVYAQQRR
Excerpt: (b) In Vitro PI3K Enzyme Assay
The assay used AlphaScreen technology (Gray et al., Analytical Biochemistry, 2003, 313: 234-245) to determine the ability of test compounds to inhibit phosphorylation by recombinant Type I PI3K enzymes of the lipid PI(4,5)P2.
DNA fragments encoding human PI3K catalytic and regulatory subunits were isolated from cDNA libraries using standard molecular biology and PCR cloning techniques. The selected DNA fragments were used to generate baculovirus expression vectors. In particular, full length DNA of each of the p110α, p110β and p110δ Type Ia human PI3K p110 isoforms (EMBL Accession Nos. HSU79143, S67334, Y10055 for p110 α, p110β and p110δ respectively) were sub-cloned into a pDEST10 vector (Invitrogen Limited, Fountain Drive, Paisley, UK). The vector is a Gateway-adapted version of Fastbac1 containing a 6-His epitope tag. A truncated form of Type Ib human PI3K p110γ isoform corresponding to amino acid residues 144-1102 (EMBL Accession No. X8336A) and the full length human p85α regulatory subunit (EMBL Accession No. HSP13KIN) were also sub-cloned into pFastBac1 vector containing a 6-His epitope tag. The Type Ia p110 constructs were co-expressed with the p85α regulatory subunit. […]
20 hours at room temperature in the dark. The resultant signals arising from laser light excitation at 680 nm were read using a Packard AlphaQuest instrument. […]

recombinant mTOR = biological target: T2, recombinant mTOR (Homo sapiens, UniProt P42345); assay: In vitro mTOR kinase assay (AlphaScreen); assay type: biochemical; details: Test (a)
T2 construct: FLAG; made in house
T2 sequence (P42345 1362-2549): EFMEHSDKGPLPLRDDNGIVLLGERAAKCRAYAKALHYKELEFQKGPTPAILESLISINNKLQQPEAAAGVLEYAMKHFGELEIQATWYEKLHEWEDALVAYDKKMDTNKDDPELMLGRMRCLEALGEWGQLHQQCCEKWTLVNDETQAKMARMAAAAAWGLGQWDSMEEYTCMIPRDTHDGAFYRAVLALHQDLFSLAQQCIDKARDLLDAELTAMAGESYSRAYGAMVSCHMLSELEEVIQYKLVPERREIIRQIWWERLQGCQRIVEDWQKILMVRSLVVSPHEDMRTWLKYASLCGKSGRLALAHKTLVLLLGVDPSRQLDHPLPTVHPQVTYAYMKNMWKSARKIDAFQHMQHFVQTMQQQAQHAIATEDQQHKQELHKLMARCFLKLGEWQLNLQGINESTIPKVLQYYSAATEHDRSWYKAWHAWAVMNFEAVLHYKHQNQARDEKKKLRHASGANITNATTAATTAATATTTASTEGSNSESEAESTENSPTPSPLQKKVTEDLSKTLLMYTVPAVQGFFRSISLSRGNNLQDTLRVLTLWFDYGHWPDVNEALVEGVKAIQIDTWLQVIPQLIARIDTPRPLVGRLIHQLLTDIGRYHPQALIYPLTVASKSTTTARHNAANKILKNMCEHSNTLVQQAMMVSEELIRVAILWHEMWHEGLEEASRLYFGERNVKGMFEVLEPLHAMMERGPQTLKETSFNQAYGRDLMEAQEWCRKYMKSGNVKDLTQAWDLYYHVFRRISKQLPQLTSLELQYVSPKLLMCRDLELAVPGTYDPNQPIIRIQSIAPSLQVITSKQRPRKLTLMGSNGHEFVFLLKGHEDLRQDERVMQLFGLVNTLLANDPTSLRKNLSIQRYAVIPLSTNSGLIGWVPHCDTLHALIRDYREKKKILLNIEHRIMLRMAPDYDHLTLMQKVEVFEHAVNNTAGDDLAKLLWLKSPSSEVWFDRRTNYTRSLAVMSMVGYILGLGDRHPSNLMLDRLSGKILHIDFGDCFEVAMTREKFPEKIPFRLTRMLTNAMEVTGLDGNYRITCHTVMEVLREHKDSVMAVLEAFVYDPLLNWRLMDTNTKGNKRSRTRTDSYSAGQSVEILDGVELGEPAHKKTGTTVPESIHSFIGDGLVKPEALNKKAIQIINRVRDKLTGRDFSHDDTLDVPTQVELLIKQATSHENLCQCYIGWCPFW
Experimental: (a) In Vitro mTOR Kinase Assay
The assay used AlphaScreen technology (Gray et al., Analytical Biochemistry, 2003, 313: 234-245) to determine the ability of test compounds to inhibit phosphorylation by recombinant mTOR.
The HEK293 FLAG-tagged mTOR (1362-2549) stable cell line was routinely maintained at 37° C. with 5% CO2 up to a confluency of 70-90% in Dulbecco's modified Eagle's growth medium (DMEM; Invitrogen Limited, Paisley, UK Catalogue No. 41966-029) containing 10% heat-inactivated foetal calf serum (FCS; Sigma, Poole, Dorset, UK, Catalogue No. F0392), 1% L-glutamine (Gibco, Catalogue No. 25030-024) and 2 mg/ml Geneticin
(G418 sulfate; Invitrogen Limited, UK Catalogue No. 10131-027). […]
Each reaction was stopped by the addition of 10 μl of a mixture of EDTA (50 mM), bovine serum albumin (BSA; 0.5 mg/mL) and Tris-HCl pH7.4 buffer (50 mM) containing p70 S6 Kinase (T389) 1A5 Monoclonal Antibody (Cell Signalling Technology, Catalogue No. 9206B) and AlphaScreen Streptavidin donor and Protein A acceptor beads (200 ng; Perkin Elmer, Catalogue No. 6760002B and 6760137R respectively) were added and the assay plates were left for about 20 hours at room temperature in the dark. The resultant signals arising from laser light excitation at 680 nm were read using a Packard Envision instrument. […]
mTOR enzyme inhibition for a given test compound was expressed as an IC50 value.

[1] = system: phosphorylation of Serine 473 in Akt, MDA-MB-468 cells; assay: In vitro phospho-Ser473 Akt assay; assay type: cell-based; details: Homo sapiens, MDA-MB-468, Test (c), mean of five occasions, read-out: IC50 versus Serine 473 in Akt, mean value
Experimental: (c) In Vitro Phospho-Ser473 Akt Assay
This assay determines the ability of test compounds to inhibit phosphorylation of Serine 473 in Akt as assessed using Acumen Explorer technology (Acumen Bioscience Limited), a plate reader that can be used to rapidly quantitate features of images generated by laser-scanning.
A MDA-MB-468 human breast adenocarcinoma cell line (LGC Promochem, Teddington, Middlesex, UK, Catalogue No. HTB-132) was routinely maintained at 37° C. with 5% CO2 up to a confluency of 70-90% in DMEM containing 10% heat-inactivated FCS and 1% L-glutamine.
For the assay, the cells were detached from the culture flask using ‘Accutase’ (Innovative Cell Technologies Inc., San Diego, Calif., USA; Catalogue No. AT104) using standard tissue culture methods and resuspended in media to give 1.7×10^5 cells per mL. Aliquots (90 μl) were seeded into each of the inner 60 wells of a black Packard 96 well plate (PerkinElmer, Boston, Mass., USA; Catalogue No. 6005182) to give a density of ˜15000 cells per well. […]
No. 10010015). […] An aliquot of PBS (50 μl) was added to each well and the plates were sealed with black plate sealers and the fluorescence signal was detected and analysed.
Fluorescence dose response data obtained with each compound were analysed and the degree of inhibition of Serine 473 in Akt was expressed as an IC50 value.

IC50 (p110α Type Ia human PI3K; mean of three occasions, read-out: IC50 versus p110α Type Ia human PI3K, mean value) [µM] | IC50 (p110α Type Ia human PI3K; single occasions, read-out: IC50 versus p110α Type Ia human PI3K) | IC50 (recombinant mTOR; mean of three occasions, read-out: IC50 versus mTOR kinase, mean value) [µM] | IC50 (recombinant mTOR; single occasions, read-out: IC50 versus mTOR kinase) | IC50 [1] [µM] | Structure (SMILES)
6.8 | 1.9 µM and 13 µM and 5.7 µM | 5.4 | 3.9 µM and 4.1 µM and 8.2 µM | – | O=S(=O)(CCc1cccc(C(F)(F)F)c1)Cc1cc(N2CCOCC2)nc(-c2ccccn2)n1 [Example 65, 4-morpholin-4-yl-2-pyridin-2-yl-6-[2-[3-(trifluoromethyl)phenyl]ethylsulfonylmethyl] pyrimidine]
– | – | – | – | 8.84 | O=S(=O)(Cc1cc(N2CCOCC2)nc(-c2ccccn2)n1)c1ccccc1 [Example 44, 4-(benzenesulfonylmethyl)-6-morpholin-4-yl-2-pyridin-2-yl-pyrimidine]
